The results in this text go back to patent publication US8785430B2, “Compound that can inhibit UBC13-UEV interactions, pharmaceutical compositions and therapeutic uses” (Consejo Superior de Investigaciones Cientificas, priority 2006, dated 2014).

A value given as a limit tells only on which side of the number the result lay.

The test has as its target T1, binding of UEV1 to GST-UBC13 (Homo sapiens, UniProt P61088).
T1 construct: made in house; host or cells: Escherichia coli BL21
T1 sequence (P61088 1-152): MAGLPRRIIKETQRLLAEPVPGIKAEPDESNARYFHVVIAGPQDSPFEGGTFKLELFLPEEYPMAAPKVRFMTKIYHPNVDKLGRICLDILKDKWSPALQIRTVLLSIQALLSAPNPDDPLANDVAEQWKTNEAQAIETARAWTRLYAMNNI
Kind of test: Purified recombinant protein interaction assay, UEV1 binding to GST-UBC13 on glutathione-Sepharose. The conditions noted are these: for UEV1 in the fraction which is eluted and not bound to GST-UBC13: 100 μM; for inhibition of the interaction of UEV1 with UBC13 at lower concentrations: much lower concentrations, of up to 10 nM. The protocol:
To determine the activity of these compounds in acellular assays, protein-protein interaction experiments were performed with recombinant proteins produced in Escherichia coli. To express UBC13 and UEV1, bacterial cells of the E. coli strain BL21 were transformed with plasmids pGEX-4T1-UBC13 or pGEX-4T3-UEV1, transformed colonies being selected by means of growth in plates with ampicillin (100 μg/mL). Individual colonies were transferred to 3 L of LB medium without antibiotics, being grown with stirring at 37° C. until the culture reached the exponential phase (OD600˜0.6), at which time the expression of the recombinant proteins was induced by means of adding isopropyl […] (IPTG, Sigma I-6758) at a concentration of 1 mM for 5 hours to the culture. The cultures were transferred to tubes, centrifuged and the cell pellets were resuspended in twice their volume of phosphate buffered saline (PBS) at pH 7.4 and were broken in a Cell Disruptor instrument (Constant Systems). The cell lysates were filtered through cellulose acetate filters with […] (Millipore SLHA033SS) and were applied to GSTrap FF columns (Amersham Biosciences 17-5131-01). In the case of UEV1, the protein bound specifically to the column was subjected to enzymatic digestion on the same column with 50 units of thrombin (Amersham Biosciences 27-0846-01) at 25° C. overnight. A HiTrapBenzamidine FF column (Amersham Biosciences 27-0846-01) was coupled to the previous column, such that the GST unit was trapped in the first column, and the thrombin in the second column. Then the UEV1 protein was eluted, without the GST portion, followed by a subsequent step of purification by means of gel filtration chromatography with a Superdex 75 column. The GST-UBC13 recombinant protein was expressed as indicated above, being purified by means of affinity chromatography in GSTrap FF columns, followed by filtration chromatography in Superdex 75. The fractions corresponding to the purified proteins were concentrated by means of centrifugation in Centricon YM-10 columns (Millipore 4205), being stored at 4° C. until their use.
To determine the effects of compounds Ia and Ib on the interaction of UBC13 with UEV1, 2 μL of the GST-UBC13 chimeric recombinant protein, at a concentration of […] in a 50 mM Hepes buffer, 100 mM NaCl, 1 mM EDTA, 0.5 mM DTT at pH 7.6 were pre-incubated for 30 minutes at room temperature with the compounds Varubin, Ib or the cyclic control compound VIII-N6-2-1C at final concentrations of 10 nM, 100 nM, 1 μM, 10 μM or 100 μM. […]

Turning to `NC(=O)CN(CCc1ccccn1)C(=O)CC1C(=O)N(CCc2ccc(F)cc2)CC(=O)N1CCc1ccc(F)cc1` (stereo not shown) [Ib, 1,4-bis[2′-(4″-fluorophenyl)ethyl]-2-[N-aminocarbonylmethyl-N-(2′-(2″-pyridyl)ethyl)-carbonylmethyl]piperazine-3,6-dione], the “UEV1 in the fraction which is eluted and not bound to GST-UBC13” value is not above 40%; the “inhibition of the interaction of UEV1 with UBC13 at lower concentrations” value is recorded as “efficient inhibition”.

`NC(=O)CN(CCc1ccccn1)C(=O)C1CC(=O)N(CCc2ccc(F)cc2)CC(=O)N1CCc1ccc(F)cc1` (stereo not shown) [Ia, N-aminocarbamoylmethyl-N-(2′-(2″pyridyl)ethyl)-1,4-bis[2′-(4″-fluorophenyl)ethyl]-3,7-dioxo-[1,4]diazepane-5-carboxamide]: the “UEV1 in the fraction which is eluted and not bound to GST-UBC13” value is “up to 60%”; the “inhibition of the interaction of UEV1 with UBC13 at lower concentrations” value is “efficient inhibition”.
